Columns and labels:
Adenylate cyclase type 2 [1] = target: T1, Adenylate cyclase type 2 (Homo sapiens, UniProt Q08462); experiment: Agonist activity at recombinant human AC2 expressed in HEK293 cells assessed as increase in cAMP level by measuring cAMP level at 50 uM measured after 30 mins by LANCE Ultra cAMP Detection kit method relative to control; type: cell-based
Adenylate cyclase type 2 [2] = target: T1, Adenylate cyclase type 2; experiment: Agonist activity at recombinant human AC2 expressed in HEK293 cells assessed as increase in cAMP level measured after 30 mins by LANCE Ultra cAMP Detection kit method; type: cell-based

T1 sequence (Q08462 whole entry): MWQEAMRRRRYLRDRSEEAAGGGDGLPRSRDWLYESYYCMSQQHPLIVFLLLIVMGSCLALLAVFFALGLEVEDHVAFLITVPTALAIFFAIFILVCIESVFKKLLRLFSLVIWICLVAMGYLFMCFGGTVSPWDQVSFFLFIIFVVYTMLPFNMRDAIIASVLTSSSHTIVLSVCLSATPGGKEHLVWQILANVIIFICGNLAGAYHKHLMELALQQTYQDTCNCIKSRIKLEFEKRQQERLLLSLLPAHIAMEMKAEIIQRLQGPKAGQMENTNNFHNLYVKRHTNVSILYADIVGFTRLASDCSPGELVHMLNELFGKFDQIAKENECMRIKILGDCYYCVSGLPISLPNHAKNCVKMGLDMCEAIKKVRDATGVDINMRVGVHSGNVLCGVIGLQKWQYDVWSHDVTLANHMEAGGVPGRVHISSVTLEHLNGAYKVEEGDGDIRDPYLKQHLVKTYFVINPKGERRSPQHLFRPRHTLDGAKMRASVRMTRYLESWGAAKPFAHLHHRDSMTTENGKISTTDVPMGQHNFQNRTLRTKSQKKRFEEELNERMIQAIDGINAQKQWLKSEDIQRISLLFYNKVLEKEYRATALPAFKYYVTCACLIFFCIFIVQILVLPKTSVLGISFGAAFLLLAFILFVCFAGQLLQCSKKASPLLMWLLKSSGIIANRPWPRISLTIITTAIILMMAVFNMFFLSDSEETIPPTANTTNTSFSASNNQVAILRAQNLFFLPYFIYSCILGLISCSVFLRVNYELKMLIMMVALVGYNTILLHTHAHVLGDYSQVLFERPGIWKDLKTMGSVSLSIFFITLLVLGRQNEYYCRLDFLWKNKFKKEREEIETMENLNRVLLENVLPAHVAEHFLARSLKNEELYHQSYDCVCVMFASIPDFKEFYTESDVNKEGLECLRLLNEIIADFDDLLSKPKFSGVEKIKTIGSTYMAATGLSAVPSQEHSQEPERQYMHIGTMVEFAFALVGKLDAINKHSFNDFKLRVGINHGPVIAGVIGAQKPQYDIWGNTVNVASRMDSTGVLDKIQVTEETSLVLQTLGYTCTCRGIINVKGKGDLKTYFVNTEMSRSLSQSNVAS

Activity (Adenylate cyclase type 2 [1]) [%]	Activity (Adenylate cyclase type 2 [1]; filed as agonist) [%]	EC50 (Adenylate cyclase type 2 [2]) [µM]	Structure (SMILES)
–	59.1	0.345	Cc1ccc([C@H]2OC3(C(=O)c4cccc(F)c4C3=O)[C@H]3C(=O)N(c4ccccc4Cl)C(=O)[C@@H]23)cc1 (mixture of isomers)
–	96.9	0.31	Cc1cc(C)cc(N2C(=O)[C@H]3[C@@H](c4ccc(Cl)cc4)OC4(C(=O)c5ccccc5C4=O)[C@H]3C2=O)c1
–	102	0.43	CCc1ccc(N2C(=O)[C@H]3[C@@H](c4ccc(Cl)cc4)OC4(C(=O)c5ccccc5C4=O)[C@H]3C2=O)cc1
–	80.8	0.692	Cc1ccc([C@H]2OC3(C(=O)c4ccc(F)cc4C3=O)[C@H]3C(=O)N(c4ccccc4Cl)C(=O)[C@@H]23)cc1 (mixture of isomers)
–	93.6	0.17	Cc1ccc([C@H]2OC3(C(=O)c4ccccc4C3=O)[C@H]3C(=O)N(c4ccccc4Cl)C(=O)[C@@H]23)cc1
–	99.5	1.64	Cc1ccc([C@H]2OC3(C(=O)c4ccccc4C3=O)[C@H]3C(=O)N(c4ccc(F)cc4)C(=O)[C@@H]23)cc1
–	98.1	0.3	Cc1ccc([C@H]2OC3(C(=O)c4ccc(C)cc4C3=O)[C@H]3C(=O)N(c4ccccc4Cl)C(=O)[C@@H]23)cc1 (mixture of isomers)
0	–	–	O=C1[C@H]2[C@@H](c3ccc4ccccc4c3)OC3(C(=O)c4ccccc4C3=O)[C@H]2C(=O)N1c1ccccc1Cl
–	96.2	0.236	Cc1ccc([C@H]2OC3(C(=O)c4ccc(Cl)cc4C3=O)[C@H]3C(=O)N(c4ccccc4Cl)C(=O)[C@@H]23)cc1 (mixture of isomers)
–	97.9	5.05	Cc1ccc(N2C(=O)[C@H]3[C@@H](c4cccc(Cl)c4)OC4(C(=O)c5ccccc5C4=O)[C@H]3C2=O)cc1
–	88.5	0.301	Cc1ccc([C@H]2OC3(C(=O)c4cccc(Cl)c4C3=O)[C@H]3C(=O)N(c4ccccc4Cl)C(=O)[C@@H]23)cc1 (mixture of isomers)
–	99.9	3.53	O=C1[C@H]2[C@@H](c3ccc(Cl)cc3)OC3(C(=O)c4ccccc4C3=O)[C@H]2C(=O)N1c1cccc(F)c1
–	100	24.8	CCOc1ccc([C@H]2OC3(C(=O)c4ccccc4C3=O)[C@H]3C(=O)N(c4ccc(C)cc4)C(=O)[C@@H]23)cc1
–	95.9	0.67	CCc1ccc([C@H]2OC3(C(=O)c4ccccc4C3=O)[C@H]3C(=O)N(c4ccc(C)cc4)C(=O)[C@@H]23)cc1
–	76	11.6	Cc1ccc([C@H]2OC3(C(=O)c4cccc(Br)c4C3=O)[C@H]3C(=O)N(c4ccccc4Cl)C(=O)[C@@H]23)cc1 (mixture of isomers)
–	103	1.2	COc1ccc(OC)c(N2C(=O)[C@H]3[C@@H](c4ccc(C)cc4)OC4(C(=O)c5ccccc5C4=O)[C@H]3C2=O)c1
–	107	0.77	Cc1ccc([C@H]2OC3(C(=O)c4ccccc4C3=O)[C@H]3C(=O)N(c4ccc(C)cc4F)C(=O)[C@@H]23)cc1
–	84.6	0.96	COc1cccc(N2C(=O)[C@H]3[C@@H](c4ccc(C)cc4)OC4(C(=O)c5ccccc5C4=O)[C@H]3C2=O)c1
0.25	–	–	COc1ccc([C@H]2OC3(C(=O)c4ccccc4C3=O)[C@H]3C(=O)N(c4ccccc4F)C(=O)[C@@H]23)cc1

The next lines start with the molecule.

Structure (SMILES)	Activity (Adenylate cyclase type 2 [1]) [%]	Activity (Adenylate cyclase type 2 [1]; filed as agonist) [%]	EC50 (Adenylate cyclase type 2 [2]) [µM]
Cc1cc(C)cc(N2C(=O)[C@H]3[C@@H](c4ccccc4Cl)OC4(C(=O)c5ccccc5C4=O)[C@H]3C2=O)c1	7.14	–	–
O=C1[C@H]2[C@@H](C3CC3)OC3(C(=O)c4ccccc4C3=O)[C@H]2C(=O)N1c1ccccc1Cl	0	–	–
Cc1ccc([C@H]2OC3(C(=O)c4ccccc4C3=O)[C@H]3C(=O)N(C)C(=O)[C@@H]23)cc1	–	62	3.08
Cc1ccc([C@H]2OC3(C(=O)c4ccccc4C3=O)[C@H]3C(=O)N(C4CC4)C(=O)[C@@H]23)cc1	–	70.8	3.37
CCOc1ccc(N2C(=O)[C@H]3[C@@H](c4ccc(C)cc4)OC4(C(=O)c5ccccc5C4=O)[C@H]3C2=O)cc1	–	97.7	10.8
O=C1[C@H]2[C@@H](CCc3ccccc3)OC3(C(=O)c4ccccc4C3=O)[C@H]2C(=O)N1c1ccccc1Cl	32	–	–
Cc1ccc([C@H]2OC3(C(=O)c4ccccc4C3=O)[C@H]3C(=O)N(C4CCCCC4)C(=O)[C@@H]23)cc1	–	69.5	1.29
COc1cccc([C@H]2OC3(C(=O)c4ccccc4C3=O)[C@H]3C(=O)N(c4ccc(C)cc4)C(=O)[C@@H]23)c1	–	97.8	1.6
O=C1[C@H]2[C@@H](C3CCCCC3)OC3(C(=O)c4ccccc4C3=O)[C@H]2C(=O)N1c1ccccc1Cl	–	55.6	–
Cc1cccc([C@H]2OC3(C(=O)c4ccccc4C3=O)[C@H]3C(=O)N(c4cccc(C)c4)C(=O)[C@@H]23)c1	–	84.7	–
CC(C)[C@H]1OC2(C(=O)c3ccccc3C2=O)[C@H]2C(=O)N(c3ccccc3Cl)C(=O)[C@@H]12	27.2	–	–
CC[C@H]1OC2(C(=O)c3ccccc3C2=O)[C@H]2C(=O)N(c3ccccc3Cl)C(=O)[C@@H]12	0	–	–
CCOc1ccc(N2C(=O)[C@H]3[C@@H](c4ccc(F)cc4)OC4(C(=O)c5ccccc5C4=O)[C@H]3C2=O)cc1	–	91	39.3
CC(C)=C[C@H]1OC2(C(=O)c3ccccc3C2=O)[C@H]2C(=O)N(c3ccccc3Cl)C(=O)[C@@H]12	–	44.7	–
O=C1[C@H]2[C@@H](c3ccc(-c4ccccc4)cc3)OC3(C(=O)c4ccccc4C3=O)[C@H]2C(=O)N1c1ccccc1Cl	5.04	–	–
CC/C=C(\CCC)[C@H]1OC2(C(=O)c3ccccc3C2=O)[C@H]2C(=O)N(c3ccccc3Cl)C(=O)[C@@H]12	–	44.5	–
O=C1[C@H]2[C@@H](Cc3ccccc3)OC3(C(=O)c4ccccc4C3=O)[C@H]2C(=O)N1c1ccccc1Cl	0	–	–
Cc1ccccc1[C@H]1OC2(C(=O)c3ccccc3C2=O)[C@H]2C(=O)N(c3ccccc3Cl)C(=O)[C@@H]12	30.7	–	–
COc1cc(C)ccc1N1C(=O)[C@H]2[C@@H](c3cccc(C)c3)OC3(C(=O)c4ccccc4C3=O)[C@H]2C1=O	–	103	5.96
Cc1ccc([C@H]2OC3(C(=O)c4ccccc4C3=O)[C@H]3C(=O)N(C(C)C)C(=O)[C@@H]23)cc1	–	59	7.34
CCc1ccccc1N1C(=O)[C@H]2[C@@H](c3ccccc3Cl)OC3(C(=O)c4ccccc4C3=O)[C@H]2C1=O	20	–	–
CC(C)c1ccc([C@H]2OC3(C(=O)c4ccccc4C3=O)[C@H]3C(=O)N(c4ccc(F)cc4)C(=O)[C@@H]23)cc1	–	89.3	1.3
Cc1ccc([C@H]2OC3(C(=O)c4ccccc4C3=O)[C@H]3C(=O)N(CC(C)C)C(=O)[C@@H]23)cc1	–	56.7	–
Cc1ccc([C@H]2OC3(C(=O)c4ccccc4C3=O)[C@H]3C(=O)N(C4CCC4)C(=O)[C@@H]23)cc1	0	–	–
Cc1ccc(N2C(=O)[C@H]3[C@@H](c4ccccc4)OC4(C(=O)c5ccccc5C4=O)[C@H]3C2=O)cc1Cl	–	80.3	–
Cc1ccc([C@H]2OC3(C(=O)c4ccccc4C3=O)[C@H]3C(=O)N(C(C)(C)C)C(=O)[C@@H]23)cc1	31	–	–
